Measured values reported in patent US20060160791A1, “Wood preservative formulations” (priority 1999, published 2006).

System: soft rot fungi belonging to the groups Ascomycotina and Deuteromycotina
Assay: Soft rot soil burial test on treated beech blocks (similar to ENV-807, toxic limits per EN113)
Conditions: for Toxic Limit Value: active ingredient retention, beech blocks, John Innes No. 2 compost, 14 weeks at 28° C, lower-upper limits spanning pass/fail (>3% mass loss); for Effective Retention of Tebuconazole: tebuconazole retention needed
Description: The toxic limit value for a particular biocidal compound is the concentration of the compound which is required to prevent degradation (defined as >3% mass loss) of a substrate by a target organism. Toxic limits are normally expressed as two experimentally-determined concentrations that span the pass/fail point of the test. The toxic index is the midpoint of these two values.
A convenient method of assessing the synergistic properties of a formulation is to use a ‘synergistic index’. This may be defined as: [formula]
The theoretical toxic index may be calculated by interpolation to the theoretical line of action. A SI of 1 indicates no synergism. As the SI increases, so the degree of synergism also increases.
Testing was carried out to determine the performance of active ingredients alone and in mixture using a soft rot soil burial method.
Beech (Fagus sylvatica) blocks measuring 5×5×30 mm were prepared from local grown, seasoned, knot-free sapwood. After oven drying and weighing, the blocks were vacuum impregnated (in groups of 6 replicates) with retentions of the test preservatives which had been freshly prepared using deionised water as the diluent.
After treatment, the blocks were covered with polythene for a period of one week to reduce the drying rate and allow any fixation reactions to occur. They were then fully ventilated by standing on the laboratory bench for 2 weeks and allowed to dry.
Each series of blocks was then exposed in John Innes (No. 2) compost, previously wetted to 110% of water holding capacity using deionised water. The test systems were then incubated for 14 weeks at 28° C.
Following incubation, blocks were removed from the soil, gently rinsed in clean water and then oven dried and re-weighed.
Preservative retention and weight change data were calculated for each block and the results expressed as toxic limit values according to the criteria laid down in the test method EN113.
Where the lower toxic limit value provides a weight loss of 10% m/m or greater, then the upper toxic limit value has been used to indicate the probable effective retention of preservative; this is in accordance with EN113.

N,N-didecyl-N-methyl-poly(oxyethyl)ammonium propionate [Bardap 26]
Effective Retention of Bardap 26 (Bardap 26 retention needed, alone or as part of the named mixture, EN113 conventions): >6.2 kgm^−3
Toxic Limit Value: >6.2 kgm^−3

CCCC1COC(Cn2cncn2)(c2ccc(Cl)cc2Cl)O1 (stereo not shown) [Propiconazole, 1-[[2-(2-4-dichlorophenyl)-4-propyl-1,3-dioxolan-2-yl]methyl]-1H-1,2,4-triazole]
Toxic Limit Value: >7.0 kgm^−3
Effective Retention of Propiconazole (propiconazole retention needed, alone or as part of the named mixture, EN113 conventions): >7.0 kgm^−3

CC(C1CC1)C(O)(Cn1cncn1)c1ccc(Cl)cc1 (stereo not drawn) [Cyproconazole, (2RS,3RS; 2RS,3SR)-2-(4-chlorophenyl)-3-cyclopropyl-1-(1H-1,2,4-triazol-1-yl)butan-2-ol]
Effective Retention of Cyproconazole (cyproconazole retention needed, alone or as part of the named mixture, EN113 conventions): 1.25 kgm^−3

[O-][S+]1CCON=C1c1cc2ccccc2s1 (stereo not shown) [Bethoxazin, 3-(benzo[b]thien-2-yl)-5,6-dihydro-1,4,2-oxathiazine 4-oxide]
Toxic Limit Value: >0.77 kgm^−3
Effective Retention of Bethoxazin (bethoxazin retention needed, alone or as part of the named mixture, EN113 conventions): >0.77 kgm^−3

CC(C)(C)C(O)(CCc1ccc(Cl)cc1)Cn1cncn1 (stereo not drawn) [Tebuconazole, alpha-[2-(4-chlorophenyl)ethyl]-alpha(1,1-dimethylethyl)-1H-1,2,4-triazole-1-ethanol]
Toxic Limit Value: >7.0 kgm^−3
Effective Retention of Tebuconazole (alone or as part of the named mixture, EN113 conventions): >7.0 kgm^−3
Effective Retention of Tebuconazole (alone or as part of the named mixture, EN113 conventions, listed as tebuconazole): > 7 kgm^−3
